Measurements as given in patent US7655453B2, “Recombinant Candida rugosa lipases” (Academia Sinica, priority 2001, dated 2010).

How the values were obtained:
Assay type in all cases: biochemical
[1] = biological target: Candida rugosa lipase 4 (LIP4), native, recombinant (Diutina rugosa, UniProt P32948); experiment: Kinetic parameters of hydrolysis of cholesteryl linoleate by LIP4; conditions: 37° C., pH 7.0; LIP4 39 nM; average of three independent experiments
Text: (§1) Construction of expression vectors The E. coli expression vectors pET23a-LIP4-S19 and pET23a-trx-LIP4-S19 were constructed as described in Tang et al. (2000) Protein Exp. Purif. 20: 308-313. Open-reading frames of LIP1, LIP2, LIP3, and LIP5 without the leader sequence were obtained by reverse transcription-polymerase chain reaction (RT-PCR). See Longhi et al. (1992) Biochim. Biophy. […] The chimeric DNA sequences were constructed by replacing the SphI(184)-BstXI(304) restriction DNA fragment of LIP4 with the corresponding fragments of LIP1, LIP2, LIP3, or LIP5, respectively. The resulting sequences encode mature chimeric C. rugosa lipases, denoted as TrX-LIP4/lid1, TrX-LIP4/lid2, TrX-LIP4/lid3, and TrX-LIP4/lid5, and were confirmed by DNA sequencing.
(§2) Preparation of recombinant LIP4 from E. coli. E. coli strain AD494(DE3) (Novagen, Milwaukee, Wis.) harboring recombinant plasmid was grown overnight at 37° C. in Luria-Bertani (LB) broth supplemented with 50 μg/mL ampicillin and 15 μg/mL kanamycin. The cells were then diluted 20-fold into fresh medium and incubated with shaking at 25° C. After adding IPTG to give a final concentration of 0.05 mM, the cells were incubated at 10° C. until OD600 reached 1.0.
(§3) Purification of recombinant LIP4. After induction, the AD494(DE3) transformants were harvested by centrifugation at 4000 g and 4° C. for 10 min. […]

[2] = tested on: Candida rugosa lipase 4 chimera Trx-LIP4/lid1 (lid region residues 63-94 of LIP4 exchanged with that of LIP1; thioredoxin fusion); experiment: Kinetic parameters of hydrolysis of cholesteryl linoleate by Trx-LIP4/lid1; conditions: 37° C., pH 7.0; Trx-LIP4/lid1 11 nM; average of three independent experiments
Text: as §1, §2, §3

[3] = tested on: Candida rugosa lipase 4 chimera Trx-LIP4/lid2 (lid region residues 63-94 of LIP4 exchanged with that of LIP2; thioredoxin fusion); experiment: Kinetic parameters of hydrolysis of cholesteryl linoleate by Trx-LIP4/lid2; conditions: 37° C., pH 7.0; Trx-LIP4/lid2 86 nM; average of three independent experiments
Text: as §1, §2, §3

[4] = tested on: Candida rugosa lipase 4 chimera Trx-LIP4/lid3 (lid region residues 63-94 of LIP4 exchanged with that of LIP3; thioredoxin fusion); experiment: Kinetic parameters of hydrolysis of cholesteryl linoleate by Trx-LIP4/lid3; conditions: 37° C., pH 7.0; Trx-LIP4/lid3 58 nM; average of three independent experiments
Text: as §1, §2, §3

[5] = tested on: Candida rugosa lipase 4 chimera Trx-LIP4/lid5 (lid region residues 63-94 of LIP4 exchanged with that of LIP5; thioredoxin fusion); experiment: Kinetic parameters of hydrolysis of cholesteryl linoleate by Trx-LIP4/lid5; conditions: 37° C., pH 7.0; Trx-LIP4/lid5 66 nM; average of three independent experiments
Text: as §1, §2, §3

Sequence of Candida rugosa lipase 4 (LIP4), native, recombinant (P32948 3-549, looked up, natural form): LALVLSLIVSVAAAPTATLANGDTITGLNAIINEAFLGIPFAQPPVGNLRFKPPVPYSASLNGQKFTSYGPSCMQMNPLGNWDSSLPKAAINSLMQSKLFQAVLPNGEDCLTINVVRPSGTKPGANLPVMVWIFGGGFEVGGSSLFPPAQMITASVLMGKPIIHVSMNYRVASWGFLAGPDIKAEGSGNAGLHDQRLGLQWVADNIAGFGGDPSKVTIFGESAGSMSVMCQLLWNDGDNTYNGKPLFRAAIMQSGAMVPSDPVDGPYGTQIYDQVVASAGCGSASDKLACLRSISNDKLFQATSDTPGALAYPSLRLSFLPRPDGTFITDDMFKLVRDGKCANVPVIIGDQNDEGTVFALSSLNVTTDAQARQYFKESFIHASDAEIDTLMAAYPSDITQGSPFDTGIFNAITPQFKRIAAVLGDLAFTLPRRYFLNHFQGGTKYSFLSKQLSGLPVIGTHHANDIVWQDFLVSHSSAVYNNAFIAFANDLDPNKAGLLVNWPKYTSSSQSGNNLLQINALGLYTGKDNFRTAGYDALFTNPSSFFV

Structure (SMILES): CCCCC/C=C\C/C=C\CCCCCCCC(=O)O[C@H]1CC[C@@]2(C)C(=CC[C@H]3[C@@H]4CC[C@H]([C@H](C)CCCC(C)C)[C@@]4(C)CC[C@@H]32)C1 [cholesteryl linoleate]
- Km [1]: 41 ± 5 µM
- Km [2]: 103 ± 5 µM
- Vmax [2]: 28 ± 1 10^−3 μmol/min/mg
- Km [3]: 74 ± 3 µM
- Vmax [3]: 1851 ± 24 10^−3 μmol/min/mg
- Km [4]: 46 ± 1 µM
- Vmax [4]: 231 ± 14 10^−3 μmol/min/mg
- Km [5]: 34 ± 1 µM
- Vmax [5]: 70 ± 4.8 10^−3 μmol/min/mg
